One compound from patent US20240294488A1, “ISOTOPOLOGES, SALTS, CRYSTALLINE FORMS, STEREOISOMERS, OF METHYLONE AND ETHYLONE AND METHODS OF USE THEREOF” (Terran Biosciences Inc., priority 2021, published 2024) can be followed below.

Series [1] can be described thus: Dynamic vapor sorption (DVS). The series is classed as physicochemical. As for the experimental part: The sample for moisture analysis was allowed to dry at 25° C. for up to 4 hours under a stream of dry nitrogen. The relative humidity is then increased stepwise from 10 to 90% relative humidity (adsorption scan) allowing the sample to equilibrate for a maximum of four hours before weighing and moving on to the next step. The desorption scan is measured from 85 to 0% relative humidity with the same equilibration time. The sample is then dried under a stream of dry nitrogen at 80° C. for 2 hours or until no weight loss is observed.
DVS analysis was carried out using a TA Instruments Q5000 Dynamic Vapor Sorption analyzer. The instrument was calibrated with standard weights and a sodium bromide standard for humidity. Approximately 10-25 mg of sample was loaded into a metal-coated quartz pan for analysis. The sample was analyzed at 25° C. with a maximum equilibration time of one hour in 10% relative humidity (RH) steps from 5 to 95% RH (adsorption cycle) and from 95 to 5% RH (desorption cycle). The movement from one step to the next occurred either after satisfying the equilibrium criterion of 0.01% weight change or, if the equilibrium criterion was not met, after one hour. The percent weight change values were calculated.

Series [2] can be described thus: Plasma and brain concentration at end of zero maze study. In kind it is in vivo, rat. The note with it: end of zero maze study, 5, 15, 30 mg/kg ip, FIG. 68 and FIG. 69. As for the experimental part:
Terminal sampling. At the end of the study, terminal blood was collected from 2 of the vehicle treated rats (>5 mL) and from all methylone HCl treated rats (500 uL) by CP under CO2. Blood samples were placed into Eppendorf tubes on ice containing 22 μL/mL blood (vehicle treated) or 11 μL EDTA (93 mg/mL) (Methylone HCl treated rats) and gently mixed. After no longer than 30 min, blood samples were centrifuged at 10,000 rpm×3 min and plasma samples (>2 mL (vehicle) or 2×100 μL (Methylone HCl treated) placed into Eppendorf tubes (Vehicle) or 96 well plates on dry ice. Immediately after blood sampling, brains were excised, rinsed in saline, blotted, weighed and snap-frozen in liquid N2. All samples were stored at −20° C. until dispatched on dry ice for analysis.
Terminal sampling. At the end of the study, terminal blood was collected from 2 of the vehicle treated rats (>5 mL) and from all S-methylone HCl treated rats (500 uL) by CP under CO2. Blood samples were placed into Eppendorf tubes on ice containing 22 μL/mL blood (vehicle treated) or 11 μL EDTA (93 mg/mL) (S-methylone HCl treated rats) and gently mixed. […]

Structures are written as SMILES. Where a name gives a salt, the structure may show the parent alone.

Turning to `CNC(C)C(=O)c1ccc2c(c1)OCO2` (racemic) [(rac)-Methylone Hydrochloride, 3,4-methylenedioxy-N-methylcathinone hydrochloride], the “relative humidity above which water uptake occurs” value in series [1] (DVS, FIG. 26) is “above 75 % RH”. For the same compound, in series [1] (between 5% RH and 95% RH), the “physical stability after moisture sorption-desorption analysis” value is reported as “physically stable” and the water gain turned out to be 0.33%. Moreover, in series [1] (between 95% RH and 5% RH), the water loss is on record as 0.15%. In addition, in series [1] (exposed to 75% RH for 2 hours), the “appearance after humidity exposure” value is “became tacky and stuck to the vial”. Besides, the “concentration in plasma and brain” value in series [2] was “increased in both brain and plasma at the higher doses”.
